Test results reported in ChEMBL document CHEMBL1201862, “PubChem BioAssay data set” (2004).
Active and inactive are the calls of the source.

Tests used:
[1] = tested on: HEK293; assay: inhibitors of LMP1-driven NF-kB reporter, dose response, cell-based, HEK293, luciferase, cherry-pick (AID 588343); type: functional; details: Homo sapiens
[2] = microbe, parasite or virus in culture; type: functional; details: Mycobacterium tuberculosis
[3] = molecular target: Glucose-6-phosphate 1-dehydrogenase (Homo sapiens, UniProt P11413); assay: human G6PD enzyme inhibitors, dose response, selectivity assay for P. falciparum G6PD inhibitor project, biochemical, fluorescence (AID 504792); type: functional
[4] = tested on: H9c2; assay: cells; type: functional, cell-based; details: Rattus norvegicus, H9c2, Myocardium;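 further: confirmatory concentration-response retest of ultra-high-throughput screening hits for modulation of myocardial damage; cell death induced by hydrogen peroxide oxidative stress; compound pretreatment for 60 min then peroxide exposure for 2 h; potency is for protecting the cells against peroxide damage rather than for killing them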
[5] = molecular target: Cytochrome P450 2C9 (Homo sapiens, UniProt P11712)
[6] = HEp-2 cell cytotoxicity, dose response, cytotoxicity control for RSV inhibitor project, HTS (AID 2410); type: functional; details: human respiratory syncytial virus
[7] = molecular target: Genome polyprotein (dengue virus type 2, UniProt P29990); assay: Dengue-2 NS5 methyltransferase inhibitors, primary screen, biochemical, confirmation dose response (AID 588689); type: functional
[8] = molecular target: T1, High affinity choline transporter 1 (Homo sapiens, UniProt Q9GZV3); assay: CHT inhibitors, dose response, cell-based, 5-point CRC, membrane potential dye (AID 504840); type: functional
T1 sequence (Q9GZV3 whole entry): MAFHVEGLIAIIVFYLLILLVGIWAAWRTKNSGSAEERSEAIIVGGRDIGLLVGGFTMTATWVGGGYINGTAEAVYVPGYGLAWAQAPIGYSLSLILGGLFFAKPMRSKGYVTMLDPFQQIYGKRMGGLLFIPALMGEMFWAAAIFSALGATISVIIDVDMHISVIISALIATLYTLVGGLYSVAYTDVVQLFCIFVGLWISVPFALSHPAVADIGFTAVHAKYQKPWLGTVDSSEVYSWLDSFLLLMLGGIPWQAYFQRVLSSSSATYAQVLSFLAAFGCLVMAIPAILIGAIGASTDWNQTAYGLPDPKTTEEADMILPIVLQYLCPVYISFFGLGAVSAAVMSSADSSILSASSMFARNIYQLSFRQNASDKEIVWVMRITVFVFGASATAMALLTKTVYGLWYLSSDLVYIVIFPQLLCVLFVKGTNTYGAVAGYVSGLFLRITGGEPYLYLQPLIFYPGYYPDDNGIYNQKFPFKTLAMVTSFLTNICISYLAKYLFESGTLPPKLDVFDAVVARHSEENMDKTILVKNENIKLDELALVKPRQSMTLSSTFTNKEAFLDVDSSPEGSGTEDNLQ

[9] = molecular target: Heat shock protein HSP 90-alpha (Homo sapiens, UniProt P07900); type: functional, organism-based
[10] = molecular target: T2, Leucine aminopeptidase (Plasmodium falciparum 3D7, UniProt Q8IL11); assay: P. falciparum M17LAP inhibitors, primary screen, biochemical, fluorogenic H-Leu-NHMec substrate, 1536-well (AID 1619); type: functional
T2 sequence (Q8IL11 whole entry): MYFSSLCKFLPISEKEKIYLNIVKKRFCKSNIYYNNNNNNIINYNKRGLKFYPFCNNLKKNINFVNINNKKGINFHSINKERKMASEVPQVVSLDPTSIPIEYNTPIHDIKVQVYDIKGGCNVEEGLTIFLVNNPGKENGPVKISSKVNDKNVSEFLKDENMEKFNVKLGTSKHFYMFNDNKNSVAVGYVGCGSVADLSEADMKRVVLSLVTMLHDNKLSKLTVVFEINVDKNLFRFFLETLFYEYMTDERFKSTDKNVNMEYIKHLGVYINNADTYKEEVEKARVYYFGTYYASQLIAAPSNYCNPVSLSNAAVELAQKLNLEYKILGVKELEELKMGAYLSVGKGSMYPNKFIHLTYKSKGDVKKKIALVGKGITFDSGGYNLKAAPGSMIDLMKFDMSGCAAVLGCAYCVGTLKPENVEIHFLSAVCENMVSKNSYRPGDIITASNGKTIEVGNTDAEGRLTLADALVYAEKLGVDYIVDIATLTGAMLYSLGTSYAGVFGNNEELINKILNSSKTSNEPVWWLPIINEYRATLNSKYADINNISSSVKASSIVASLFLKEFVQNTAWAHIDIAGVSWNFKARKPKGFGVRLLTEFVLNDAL

[11] = Luminescence Cell-Based Dose Retest to Confirm Inhibitors of Cancer Stem Cells. [Related pubchem assays (depositor defined):AID2717, AID2721]; type: functional; details: Homo sapiens
[12] = cytotoxicity toward NIH3T3 fibroblasts, dose response, counter-screen, cell-based, ATP luminescence, mouse fibroblasts (AID 2010); type: functional;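 further: cells exposed to compound for about 90 hours before reading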
[13] = tested on: Streptococcus; assay: Group A Streptococcus viability loss, dose response, counter-screen for streptokinase expression inhibitor project, luminescence, BacTiterGlo (AID 1915); type: functional, organism-based;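 further: potency for reduction of bacterial viability or growth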
[14] = inhibitors of intracellular T. cruzi replication, confirmation, NIH3T3 host cells, beta-gal luminescence (AID 2044); type: functional, cell-based;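 further: intracellular parasites grown in NIH/3T3 mouse fibroblasts as host cells; luminescent beta-galactosidase reporter signal from transgenic T. cruzi replicating inside host cells; inhibitors lower the luminescence signal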
[15] = tested on: Streptococcus sp. 'group A'; assay: growth inhibition of control SK(-) GAS strain, dose response, counter-screen for streptokinase expression inhibitor project, luminescence, kanamycin, BacTiterGlo, confirmation (AID 1900); type: functional, organism-based
[16] = tested on: INS1; assay: beta cell apoptosis inhibitors, cytokine rescue, dose response, luminescence, retest (AID 449756); type: functional, cell-based; details: Rattus norvegicus;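 further: cell death triggered by IL-1 beta plus TNF-alpha plus IFN-gamma mixture; protective hits raise ATP signal compared with cytokine alone wells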
[17] = HepG2 cell cytotoxicity, dose response, cytotoxicity control for Shn3 inhibitor project, CellTiter-Glo, cherry-picked (AID 624134); type: functional, cell-based
[18] = Shn3 3'UTR reporter inhibitors, dose response, cell-based, Clone20 osteoblasts, firefly luciferase, cherry-picked (AID 624132); type: functional;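 further: firefly luciferase luminescence from reporter carrying the Shn3 3'UTR in osteoblasts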
[19] = control 3'UTR Renilla luciferase suppression, dose response, counter-screen for Shn3 inhibitor project, cell-based, Clone20-Shn3RL, cherry-picked (AID 624133); type: functional
[20] = molecular target: Cytochrome P450 3A4 (Homo sapiens, UniProt P08684);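 further: CYP3A4 tested as one member of a cytochrome P450 panel screen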
[21] = molecular target: T3, Cytochrome P450 1A2 (Homo sapiens, UniProt P05177);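 further: PubChem cytochrome P450 panel assay, CYP1A2 panel member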
T3 sequence (P05177 whole entry): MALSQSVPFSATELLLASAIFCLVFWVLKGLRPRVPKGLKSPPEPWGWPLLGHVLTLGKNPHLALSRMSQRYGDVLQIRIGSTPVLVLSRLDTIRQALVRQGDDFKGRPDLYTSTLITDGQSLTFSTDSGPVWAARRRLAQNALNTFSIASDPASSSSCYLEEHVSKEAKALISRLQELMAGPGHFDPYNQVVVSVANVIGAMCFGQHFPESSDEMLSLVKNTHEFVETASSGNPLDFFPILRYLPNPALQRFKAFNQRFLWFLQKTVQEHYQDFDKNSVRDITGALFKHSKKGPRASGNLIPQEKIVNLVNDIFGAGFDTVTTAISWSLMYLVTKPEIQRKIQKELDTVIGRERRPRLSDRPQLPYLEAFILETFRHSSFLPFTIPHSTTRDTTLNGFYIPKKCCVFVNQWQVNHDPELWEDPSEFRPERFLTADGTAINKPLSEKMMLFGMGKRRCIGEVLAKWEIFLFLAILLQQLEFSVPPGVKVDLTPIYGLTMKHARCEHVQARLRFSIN

[22] = molecular target: T4, Polyadenylate-binding protein 1 (Homo sapiens, UniProt P11940); assay: PABP1 MLLE–PAM2 binding inhibitor potency, dose response, biochemical, fluorescence polarization, FITC-PAM2 peptide (AID 602259); type: functional; details: read-out: IC50_Mean
[23] = molecular target: T4, Polyadenylate-binding protein 1; assay: PABP1 MLLE–PAM2 interaction inhibitors, dose response, miRNA deadenylation inhibitor project, biochemical, fluorescence polarization, Cy5-PAM2 peptide, secondary (AID 602260); type: functional; details: read-out: IC50_Mean
[24] = growth suppression of PTEN-null colon cells, dose response, cell-based, HCT116 PTEN knockout (AID 1047); type: functional;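 further: HCT116 colon tumor cells with PTEN knocked out; cells exposed to compound for 60 hours before readout; potency for loss of cell viability measured by luminescence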
[25] = growth suppression of beta-catenin-knockout colon cells, dose response, cell-based, HCT116, human colon tumor (AID 1045); type: functional;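 further: HCT116 colon tumor cells with beta catenin knocked out; cells exposed to compound for 60 hours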
[26] = cytotoxicity in OVCAR8 ovarian cancer cells, dose response, PAX8 project, cell-based, plate reader, dry powder samples (AID 743197); type: functional; details: OVCAR-8
[27] = molecular target: Paired box protein Pax-8 (Homo sapiens, UniProt Q06710); assay: inhibitors of PAX8-driven TPO luciferase reporter, dose response, RMG-I cells, cherry-pick (AID 687027); type: functional, cell-based;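 further: luciferase reporter driven by Pax8 target thyroperoxidase promoter measured by SteadyGlo luminescence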
[28] = molecular target: T5, Carboxy-terminal domain RNA polymerase II polypeptide A small phosphatase 1 (Homo sapiens, UniProt Q9GZU7); assay: inhibitors of CTDSP1, concentration-response testing, biochemical assay, absorbance-based, actives from ultra-high-throughput screening (AID 540297); type: functional
T5 sequence (Q9GZU7 whole entry): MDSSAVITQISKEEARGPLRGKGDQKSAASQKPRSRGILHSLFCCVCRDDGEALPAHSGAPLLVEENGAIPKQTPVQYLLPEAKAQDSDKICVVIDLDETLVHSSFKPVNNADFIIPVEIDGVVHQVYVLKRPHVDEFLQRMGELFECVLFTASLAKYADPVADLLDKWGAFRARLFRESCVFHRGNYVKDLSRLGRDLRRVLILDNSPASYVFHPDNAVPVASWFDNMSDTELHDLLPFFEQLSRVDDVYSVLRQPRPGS

Chain of Genome polyprotein (P29990 2492-3391 limits assumed): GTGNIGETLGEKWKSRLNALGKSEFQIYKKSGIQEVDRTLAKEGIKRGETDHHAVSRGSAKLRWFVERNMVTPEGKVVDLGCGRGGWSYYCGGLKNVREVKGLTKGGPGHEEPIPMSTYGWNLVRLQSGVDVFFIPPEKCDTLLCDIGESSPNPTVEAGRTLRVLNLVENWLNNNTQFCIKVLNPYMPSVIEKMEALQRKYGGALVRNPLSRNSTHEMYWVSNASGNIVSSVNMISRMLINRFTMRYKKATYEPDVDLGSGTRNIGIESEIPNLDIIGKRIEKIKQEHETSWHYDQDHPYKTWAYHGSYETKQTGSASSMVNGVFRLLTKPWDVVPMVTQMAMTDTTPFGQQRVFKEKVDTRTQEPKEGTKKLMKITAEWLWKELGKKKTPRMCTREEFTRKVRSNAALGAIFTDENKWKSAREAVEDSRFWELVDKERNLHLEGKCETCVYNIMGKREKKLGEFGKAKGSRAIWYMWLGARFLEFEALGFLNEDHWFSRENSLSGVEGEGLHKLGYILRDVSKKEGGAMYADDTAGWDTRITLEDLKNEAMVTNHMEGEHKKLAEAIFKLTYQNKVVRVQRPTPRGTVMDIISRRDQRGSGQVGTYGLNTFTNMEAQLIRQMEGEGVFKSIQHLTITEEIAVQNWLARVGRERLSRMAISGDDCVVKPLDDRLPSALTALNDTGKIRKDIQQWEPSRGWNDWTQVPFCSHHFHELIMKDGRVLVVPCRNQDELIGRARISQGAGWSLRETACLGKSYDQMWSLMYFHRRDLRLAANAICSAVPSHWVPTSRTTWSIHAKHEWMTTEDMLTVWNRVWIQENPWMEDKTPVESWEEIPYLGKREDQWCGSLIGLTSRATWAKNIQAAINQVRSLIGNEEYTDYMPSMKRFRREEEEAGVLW
Chain of Cytochrome P450 2C9 (P11712 whole entry): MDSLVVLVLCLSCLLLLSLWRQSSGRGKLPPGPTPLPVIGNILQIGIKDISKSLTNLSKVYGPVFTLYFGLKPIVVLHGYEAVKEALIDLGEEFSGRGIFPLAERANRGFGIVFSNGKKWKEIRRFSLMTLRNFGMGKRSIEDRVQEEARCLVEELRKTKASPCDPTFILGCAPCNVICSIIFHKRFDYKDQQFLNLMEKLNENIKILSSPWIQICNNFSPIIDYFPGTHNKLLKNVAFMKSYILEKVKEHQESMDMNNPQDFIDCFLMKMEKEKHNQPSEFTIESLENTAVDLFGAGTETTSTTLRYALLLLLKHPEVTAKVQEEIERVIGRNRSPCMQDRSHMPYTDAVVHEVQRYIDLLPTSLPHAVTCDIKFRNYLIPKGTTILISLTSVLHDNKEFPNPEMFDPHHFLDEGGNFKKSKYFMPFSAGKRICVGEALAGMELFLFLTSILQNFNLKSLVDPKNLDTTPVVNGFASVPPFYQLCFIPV
T4 sequence (P11940 whole entry): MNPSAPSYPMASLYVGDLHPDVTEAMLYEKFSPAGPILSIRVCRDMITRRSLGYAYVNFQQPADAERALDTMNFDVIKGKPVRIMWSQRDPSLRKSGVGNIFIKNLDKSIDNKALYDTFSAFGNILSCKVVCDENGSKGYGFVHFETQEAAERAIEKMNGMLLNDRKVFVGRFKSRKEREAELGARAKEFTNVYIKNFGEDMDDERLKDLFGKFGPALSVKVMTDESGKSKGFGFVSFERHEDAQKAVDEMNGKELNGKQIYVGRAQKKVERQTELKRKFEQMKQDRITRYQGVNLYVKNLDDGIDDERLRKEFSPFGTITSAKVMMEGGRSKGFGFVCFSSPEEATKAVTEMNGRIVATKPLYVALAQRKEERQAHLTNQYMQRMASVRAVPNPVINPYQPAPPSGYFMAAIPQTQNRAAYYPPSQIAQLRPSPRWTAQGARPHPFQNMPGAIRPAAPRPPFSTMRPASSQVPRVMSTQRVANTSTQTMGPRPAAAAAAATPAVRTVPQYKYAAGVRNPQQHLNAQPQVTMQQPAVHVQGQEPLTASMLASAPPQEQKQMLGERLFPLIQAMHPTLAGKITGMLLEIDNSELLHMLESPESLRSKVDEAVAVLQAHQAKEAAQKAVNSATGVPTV
Chain of Glucose-6-phosphate 1-dehydrogenase (P11413 whole entry): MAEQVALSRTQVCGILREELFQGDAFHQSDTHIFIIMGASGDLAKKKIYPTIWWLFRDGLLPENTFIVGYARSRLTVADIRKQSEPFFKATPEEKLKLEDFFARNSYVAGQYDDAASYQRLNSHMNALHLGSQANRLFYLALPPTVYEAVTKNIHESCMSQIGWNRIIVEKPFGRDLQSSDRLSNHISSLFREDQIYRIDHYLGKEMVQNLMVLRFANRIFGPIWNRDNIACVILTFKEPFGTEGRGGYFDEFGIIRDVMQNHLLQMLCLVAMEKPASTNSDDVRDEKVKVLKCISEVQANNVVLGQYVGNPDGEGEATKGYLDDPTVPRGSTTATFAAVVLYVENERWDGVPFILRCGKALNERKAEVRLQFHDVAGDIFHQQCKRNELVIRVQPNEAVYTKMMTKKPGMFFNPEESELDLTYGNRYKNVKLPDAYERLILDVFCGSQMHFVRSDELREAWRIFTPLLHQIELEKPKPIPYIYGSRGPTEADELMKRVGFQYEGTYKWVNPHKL
Chain of Cytochrome P450 3A4 (P08684 whole entry): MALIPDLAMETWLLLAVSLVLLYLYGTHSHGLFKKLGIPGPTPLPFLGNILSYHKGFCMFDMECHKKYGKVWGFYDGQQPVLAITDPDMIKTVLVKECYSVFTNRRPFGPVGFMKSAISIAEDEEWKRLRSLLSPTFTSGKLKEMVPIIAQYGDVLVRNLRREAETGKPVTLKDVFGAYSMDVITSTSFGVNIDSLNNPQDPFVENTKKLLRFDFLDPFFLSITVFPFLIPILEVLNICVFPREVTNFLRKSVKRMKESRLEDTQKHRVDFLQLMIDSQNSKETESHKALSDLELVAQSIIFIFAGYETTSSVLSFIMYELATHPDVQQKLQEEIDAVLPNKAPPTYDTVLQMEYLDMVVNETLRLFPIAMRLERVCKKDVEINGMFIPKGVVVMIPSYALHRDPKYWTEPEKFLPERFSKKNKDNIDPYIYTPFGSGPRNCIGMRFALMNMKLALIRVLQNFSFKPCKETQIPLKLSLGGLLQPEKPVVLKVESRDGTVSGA
Chain of Paired box protein Pax-8 (Q06710 whole entry, the tested form may be a part): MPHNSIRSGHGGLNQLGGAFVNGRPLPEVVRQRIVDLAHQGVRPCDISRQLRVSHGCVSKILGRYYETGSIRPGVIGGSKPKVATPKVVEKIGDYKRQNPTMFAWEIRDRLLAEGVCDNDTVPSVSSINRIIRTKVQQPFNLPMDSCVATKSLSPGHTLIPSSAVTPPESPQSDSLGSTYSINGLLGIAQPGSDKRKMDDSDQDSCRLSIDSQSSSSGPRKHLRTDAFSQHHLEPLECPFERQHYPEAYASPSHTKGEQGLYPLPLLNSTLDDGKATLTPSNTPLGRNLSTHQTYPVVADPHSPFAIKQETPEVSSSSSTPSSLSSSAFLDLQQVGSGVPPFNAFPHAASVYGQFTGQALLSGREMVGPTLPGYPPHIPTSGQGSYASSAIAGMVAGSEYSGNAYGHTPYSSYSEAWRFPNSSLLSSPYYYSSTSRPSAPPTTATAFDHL

COc1ccc(NC(=O)c2ccc(-c3ccccc3)cc2)cc1S(=O)(=O)N1CCOCC1
AC50 [1]: 0.698 µM (active)

c1ccc(-c2cn3c(n2)CCc2ccc4cccnc4c2-3)cc1
CC50 [2]: 22.1 µM (active)
IC50 [3]: > 80 µM (inactive)
IC50 [4]: > 79 µM (inactive)

C[C@@H]1O[C@H]1P(=O)([O-])[O-].[Na+].[Na+]
AC50 [5]: inconclusive

Cc1cccc(NC(=O)c2cc(NC(=O)C3CCCCC3C(=O)O)ccc2N2CCCCC2)c1 (centres undefined)
CC50 [6]: 15.7 µM (active)
IC50 [7]: 37.7 µM (active)

Cc1nnc2oc(O)c(C)c(C)c1-2
AC50 [5]: inconclusive

O=C(c1c(O)c2ccccc2oc1=O)C1CCCCC1
IC50 [8]: 10 µM (active)

Cc1ccc(Nc2nc(N)c([N+](=O)[O-])c(N3CCCC(C)C3)n2)cc1C (centres undefined)
CC50 [2]: 40 µM (active)
AC50 [9]: 8.91 µM (active)

CCOc1ccc(NC(=O)CSc2nnc[nH]2)c([N+](=O)[O-])c1
IC50 [10]: 5.46 µM (active)

Cc1ccc(OC/C(O)=C(\C#N)c2nc3ccccc3s2)cc1
CC50 [2]: > 40 µM (active)
AC50 [11]: 6.14 µM (active)

COc1ccc(C2(C(=O)Nc3ccc(S(=O)(=O)Nc4nc(C)cc(C)n4)cc3)CCCC2)cc1OC
IC50 [8]: 12.3 µM (active)

O=C(NCC(=O)N1CCCC1C(=O)O)OC1CCCCC1 (centres undefined)
IC50 [10]: 39 µM (active)

c1ccc(CN2CCN(c3nc4ccccc4n4cnnc34)CC2)cc1
IC50 [8]: 1.82 µM (active)

CCc1c(C)sc(NC(=O)OC)c1C(N)=O
AC50 [5]: inconclusive

CC(=O)c1ccc(N2CCC(c3cc(-c4ccc(Cl)cc4Cl)[nH]n3)CC2)c([N+](=O)[O-])c1
EC50 [12]: > 60 µM (inconclusive)
CC50 [2]: 29.2 µM (active)
EC50 [13]: 8.12 µM (active)
EC50 [14]: 1.24 µM (active)
EC50 [15]: 4.36 µM (active)
AC50 [11]: 2.19 µM (active)

CCOC(=O)c1oc2nc(CC(C)C)c3c(c2c1N)CCCC3
IC50 [8]: 12.9 µM (active)

O=C(c1cn[nH]c1)c1cc(F)ccc1O
IC50 [10]: 20.9 µM (active)

O=C(O)/C=C/C(=O)c1ccc(O)cc1
IC50 [7]: > 100 µM (active)

CN(C)C1=NC[C@H](Cc2ccccc2)N1CCCC1CCCCC1
AC50 [16]: 7.42 µM (active)
AC50 [17]: 20.3 µM (active)
AC50 [18]: 1.47 µM (active)
AC50 [19]: 4.98 µM (active)

COc1ccc(-n2c(C)c(C(C)=O)c3cc(OC(C)=O)ccc32)cc1
AC50 [1]: 4.43 µM (active)
IC50 [4]: > 79 µM (inactive)

CCNc1ncc2nc(-c3ccccc3)c(=O)n(Cc3ccc(F)cc3)c2n1
AC50 [20]: 20 µM (inconclusive)
AC50 [21]: 3.16 µM (inconclusive)
AC50 [5]: inconclusive

CC(=O)NC1=NC(=O)CS1
AC50 [21]: 0.2 µM (inconclusive)
AC50 [5]: inconclusive

Cc1onc(-c2ccccc2Cl)c1C(=O)Nc1nnc(-c2cccc([N+](=O)[O-])c2)s1
IC50 [8]: 19.1 µM (active)

CC[C@]1(C(=O)OC)[C@H]2C(=O)N(Cc3ccccc3)C(=O)[C@H]2[C@H]2CN=C(SCc3ccc(Cl)cc3)N21
AC50 [1]: 3.31 µM (active)

Oc1cc(CNC2CCCCC2)c(O)cc1CNC1CCCCC1
IC50 [7]: 27.4 µM (active)
IC50 [22]: 47.7 µM (inactive)
IC50 [23]: > 66 µM (inactive)

COc1ccc(C(=O)N[C@H]2CCCCNC2=O)cc1OC1CCN(C(C)C)CC1
IC50 [8]: 15.1 µM (active)

O=C(c1ccoc1)N1CCN(c2cc(-c3cccc(F)c3)nc3cc(-c4cccc(Cl)c4)nn23)CC1
AC50 [17]: > 70 µM (inactive)
AC50 [18]: 9.78 µM (active)
AC50 [19]: 12.9 µM (active)

C#CCn1/c(=N/C(=O)c2ccc(S(=O)(=O)N3CCc4ccccc4C3)cc2)sc2cc(S(N)(=O)=O)ccc21
EC50 [24]: 1.62 µM (active)
AC50 [16]: 2.68 µM (active)
AC50 [17]: 37.3 µM (active)
AC50 [18]: 1.29 µM (active)
EC50 [25]: 1.31 µM (active)
AC50 [19]: 23.9 µM (active)

CC(O)(c1ccncc1)c1nc(-c2cccc(C(F)(F)F)c2)cs1 (centres undefined)
AC50 [17]: > 70 µM (inactive)
AC50 [18]: 5.34 µM (active)
AC50 [19]: 12.5 µM (active)

Cc1ccc(S(=O)(=O)Nc2ccc3c(c2)C(=O)N([C@H](C)CO)C[C@@H](C)[C@H](CN(C)S(=O)(=O)c2ccc(Cl)cc2)OCCCC[C@H](C)O3)cc1
AC50 [26]: > 70 µM (inactive)
AC50 [27]: 8.13 µM (active)

C=CCn1cc(/C=N\NC(=O)c2cc3c(ccc4ccccc43)o2)c2ccccc21
AC50 [5]: inconclusive

O=C(O)c1cccc2c1/C(=N/Nc1ccc([N+](=O)[O-])cc1[N+](=O)[O-])c1ccccc1-2
IC50 [28]: 30.7 µM (active)
IC50 [8]: 15.2 µM (active)

NCCSC[C@H](N)C(=O)O
AC50 [5]: inconclusive

O=C1C(O)=C(C2CCC(c3ccc(Cl)cc3)CC2)C(=O)c2ccccc21 (centres undefined)
CC50 [2]: 12.8 µM (active)
AC50 [21]: 10 µM (inconclusive)
